Reference: publication PMC6792352, “Limited Chemical Structural Diversity Found to Modulate Thyroid Hormone Receptor in the Tox21 Chemical Library” (Environmental Health Perspectives, 2019)
Where a name gives a salt, the structure may show the parent alone.

test: in vitro; conditions: rat, gh3-tre-luc cells, AC50 (uM) modified / 1000

Row | Structure (SMILES) | CC50 at 24 h [µM]
1 | COc1ccc(C(=O)/N=c2\[nH]c3ccccc3c(NCc3ccccc3)c2C#N)cc1 [SSR161421] | > 90
2 | CC(=O)c1sc(C)nc1C [5-Acetyl-2,4-dimethylthiazole] | > 90
3 | CCCCCC1Nc2cc(C(F)(F)F)c(S(N)(=O)=O)cc2S(=O)(=O)N1 (centres unmarked) [Penflutizide] | > 50
4 | CCCCCCCCCCn1cc[n+](CCCCCCCCCC)c1C [1,3-Didecyl-2-methylimidazolium chloride] | 6.21
5 | CCc1cccc(N(C)C(N)=Nc2cccc3ccccc23)c1 [Aptiganel hydrochloride] | 19.6
6 | O=C(O)CCSSCCC(=O)O [3,3'-Dithiodipropionic acid] | > 90
7 | COc1cc2[nH]c(C)c(CCN3CCN(c4ccccc4)CC3)c2cc1OC [Oxypertine hydrochloride] | 23.2
8 | CC(C)C(O)C(C)(C)CO (centres unmarked) [2,2,4-Trimethyl-1,3-pentanediol] | > 90
9 | CCO[Si](CCCSSSSCCC[Si](OCC)(OCC)OCC)(OCC)OCC [4,4,15,15-Tetraethoxy-3,16-dioxa-8,9,10,11-tetrathia-4,15-disilaoctadecane] | 70.3
10 | CC(C)C(=O)OCC(=O)[C@@]12O[C@H](C3CCCCC3)O[C@@H]1C[C@H]1[C@@H]3CCC4=CC(=O)C=C[C@]4(C)[C@H]3[C@@H](O)C[C@@]12C [Ciclesonide] | 17.7
11 | CCCCC/C=C\C/C=C\CCCCCCCC(=O)NC(C)c1ccccc1 (centres unmarked) [Melinamide] | > 50
12 | CCOC(=O)C(=O)OCC [Diethyl oxalate] | > 90
13 | CCOC(=N)CC(=O)OCC [Ethyl 3-ethoxy-3-iminopropionate hydrochloride] | > 90
14 | CCN[C@@H]1C[C@H](N)[C@@H](O[C@H]2OC(CN)=CC[C@H]2N)[C@H](O)[C@H]1O[C@H]1OC[C@](C)(O)[C@H](NC)[C@H]1O [Netilmicin sulfate] | > 50
15 | Cc1ccc2c(c1)C1CN(C)CCC1N2 (centres unmarked) [Dicarbine] | > 50
16 | c1ccc2c(c1)CCc1ccccc1N2 [10,11-Dihydro-5H-dibenz[b,f]azepine] | > 90
17 | O=C(O)c1cc(O)c2c(c1)C(=O)c1cccc(O)c1C2=O [Rhein] | > 90
18 | O=C1OC(=O)c2cccc3cccc1c23 [1H,3H-Naphtho(1,8-cd)pyran-1,3-dione] | > 90
19 | CN(C)C1CCCCC1 [N,N-Dimethylcyclohexylamine] | > 90
20 | O=C(O)Cc1c(Cl)ccc(Cl)c1Cl [Chlorfenac] | > 90

Row | Structure (SMILES) | CC50 at 24 h [µM]
21 | O=C1Nc2ccc([N+](=O)[O-])cc2C1=O [5-Nitroisatin] | > 90
22 | O=C(O)CCCCCCCCCCCC(=O)O [Tridecanedioic acid] | > 90
23 | Nc1ncc([N+](=O)[O-])s1 [2-Amino-5-nitrothiazole] | > 90
24 | OCCOCCOCCO [Triethylene glycol] | > 100
25 | OC[C@H]1O[C@@H](n2cnc3c2NC=NC[C@H]3O)C[C@@H]1O [Pentostatin] | > 50
26 | NC(=O)Nc1nc2ccccc2[nH]1 [2-Benzimidazolylurea] | > 90
27 | O=C(O)c1ccccc1-c1ccc(C(F)(F)F)cc1 [Xenalipin] | > 50
28 | CC(C)(COP(=O)(O)OP(=O)(O)OC[C@H]1O[C@@H](n2cnc3c(N)ncnc32)[C@H](O)[C@@H]1OP(=O)(O)O)C(O)C(=O)NCCC(=O)NCCS (some centres unmarked) [Coenzyme A trilithium dihydrate] | > 50
29 | CCOC(=O)C(C)(C)Oc1ccc(Cl)cc1 [Clofibrate] | > 90
30 | NCCCC[C@H](N[C@@H](CCc1ccccc1)C(=O)O)C(=O)N1CCC[C@H]1C(=O)O [Lisinopril dihydrate] | > 20
31 | CS(=O)(=O)c1ccc(C2=C(c3ccccc3)C(=O)OC2)cc1 [Rofecoxib] | > 50
32 | N[C@@H]1CN(c2c(F)cc3c(=O)c(C(=O)O)cn([C@@H]4C[C@@H]4F)c3c2Cl)CC12CC2 [Sitafloxacin] | > 50
33 | C[C@@H]1CC[C@@]2(OC1)O[C@H]1[C@@H](O)[C@H]3[C@@H]4CC[C@H]5C[C@@H](O[C@@H]6O[C@H](CO)[C@H](O[C@@H]7O[C@H](CO)[C@@H](O)[C@H](O[C@@H]8OC[C@@H](O)[C@H](O)[C@H]8O)[C@H]7O[C@@H]7O[C@H](CO)[C@H](O)[C@H](O[C@@H]8O[C@H](CO)[C@@H](O)[C@H](O)[C@H]8O)[C@H]7O)[C@H](O)[C@H]6O)[C@H](O)C[C@]5(C)[C@H]4CC[C@]3(C)[C@H]1[C@@H]2C [Digitonin] | 1.67
34 | COCCOCCO [Diethylene glycol monomethyl ether] | > 90
35 | CCOC(=O)c1ccc(NC(=O)CN2CCCCC2)cc1 [Sulcaine] | > 50
36 | CCCCCCCCCCCCCC[N+](C)(C)Cc1ccccc1 [Benzyldimethyltetradecylammonium chloride dihydrate] | 10.5
37 | OC[C@H]1O[C@@H](O[C@H]2[C@H](O)[C@@H](O)C(O)O[C@@H]2CO)[C@H](O)[C@@H](O)[C@@H]1O (some centres unmarked) [Cellobiose] | > 50
38 | C=C1C[C@@]23CC[C@H]4[C@@](C)(CCC[C@@]4(C)C(=O)O[C@@H]4O[C@H](CO)[C@@H](O)[C@H](O)[C@H]4O)[C@@H]2CC[C@]1(O[C@@H]1O[C@H](CO)[C@@H](O)[C@H](O)[C@H]1O[C@@H]1O[C@H](CO)[C@@H](O)[C@H](O[C@@H]2O[C@H](CO)[C@@H](O)[C@H](O)[C@H]2O)[C@H]1O)C3 [Rebaudioside A] | > 90
39 | CN(C)CCOCCN(C)CCO [2-[{2-[2-(Dimethylamino)ethoxy]ethyl}(methyl)amino]ethanol] | > 90
40 | CCCCOC(=O)CO [Butyl hydroxyacetate] | > 90

Row | Structure (SMILES) | CC50 at 24 h [µM]
41 | CCCCc1nc2cccnc2n1Cc1ccc(-c2ccccc2-c2nnn[nH]2)cc1 [FR130739] | 55.3
42 | CCOC(C)OCC [Acetal] | > 90
43 | Nc1nnc(-c2ccc([N+](=O)[O-])o2)o1 [2-Amino-5-(5-nitro-2-furyl)-1,3,4-oxadiazole] | 59
44 | C[C@@H](O)[C@@H]1NC(=O)[C@H](CCCCN)NC(=O)[C@@H](Cc2c[nH]c3ccccc23)NC(=O)[C@H](Cc2ccccc2)NC(=O)[C@@H](NC(=O)[C@H](N)Cc2ccccc2)CSSC[C@@H](C(=O)N[C@H](CO)[C@@H](C)O)NC1=O [Octreotide] | > 50
45 | CCCC(C)c1ccccc1O (centres unmarked) [2-(1-Methylbutyl)phenol] | 54.4
46 | Nc1ccc(S(=O)(=O)NC(=O)c2ccccc2)cc1 [Sulfabenzamide] | > 20
47 | COc1ccc(CCN(C)CCCN2CCc3cc(OC)c(OC)cc3CC2=O)cc1OC [Zatebradine hydrochloride] | > 50
48 | C/C=C/c1ccc(O)c(OC)c1 [Isoeugenol] | > 90
49 | C=CCOC(=O)COCCC(C)C [Prop-2-en-1-yl (3-methylbutoxy)acetate] | > 90
50 | CCCCCCCCCCCCCCCCCC(=O)OC[C@@H](O)[C@H]1OC[C@H](O)[C@H]1O [Anhydrosorbitol stearate] | > 50
51 | O=C1Nc2ccc(Cl)cc2C(c2ccccc2Cl)=NC1O (centres unmarked) [Lorazepam] | > 50
52 | CCCN(CCc1cccs1)[C@H]1CCc2c(O)cccc2C1 [Rotigotine] | 40.9
53 | C=C(C)C(=O)OCCCCCCCCCCCCC [Tridecyl methacrylate] | > 90
54 | Oc1cccc2cc3cccc(O)c3c(O)c12 [1,8,9-Trihydroxyanthracene] | > 90
55 | CCCCCCCCCCCCC(=O)O [Tridecanoic acid] | > 90
56 | CCOC(=O)C1=C(C)NC(C)=C(C(=O)OCC)C1c1ccccc1/C=C/C(=O)OC(C)(C)C [Lacidipine] | 11.2
57 | CCN(CC)CCOC(=O)c1ccc(N)cc1Cl [Chloroprocaine hydrochloride] | > 50
58 | CCO [Ethanol] | > 100
59 | O=C=NC1CCC(CC2CCC(N=C=O)CC2)CC1 (centres unmarked) [1,1-Methylenebis(4-isocyanatocyclohexane)] | > 90
60 | O=C(OCCCCCCOC(=O)c1ccccc1)c1ccccc1 [Hexane-1,6-diyl dibenzoate] | > 90

same assay, conditions: rat, gh3-tre-luc cells, AC50 (uM) modified / 1000, Tox21_110001=Tox21_112600; viability, 1 nM T3 present, 24 h

Row | Structure (SMILES) | CC50 at 24 h [µM]
61 | CCCCCCC(=O)O[C@H]1CC[C@H]2[C@@H]3CC[C@H]4CC(=O)C=C(C)[C@]4(C)[C@H]3CC[C@]12C [Methenolone enanthate] | > 50

same assay, conditions: rat, gh3-tre-luc cells, AC50 (uM) modified / 1000, Tox21_110001=Tox21_200015; viability, 1 nM T3 present, 24 h

Row | Structure (SMILES) | CC50 at 24 h [µM]
62 | N#CSCc1ccccc1 [Benzyl thiocyanate] | > 90

same assay, conditions: rat, gh3-tre-luc cells, AC50 (uM) modified / 1000, Tox21_110001=Tox21_200172; viability, 1 nM T3 present, 24 h

Row | Structure (SMILES) | CC50 at 24 h [µM]
63 | C=CCc1cc(OC)c2c(c1)OCO2 [Myristicin] | > 100

same assay, conditions: rat, gh3-tre-luc cells, AC50 (uM) modified / 1000, Tox21_110001=Tox21_200913; viability, 1 nM T3 present, 24 h

Row | Structure (SMILES) | CC50 at 24 h [µM]
64 | O=C(O)C(Br)(Br)Br [Tribromoacetic acid] | > 90

same assay, conditions: rat, gh3-tre-luc cells, AC50 (uM) modified / 1000, Tox21_110001=Tox21_201493; viability, 1 nM T3 present, 24 h

Row | Structure (SMILES) | CC50 at 24 h [µM]
65 | O=NN(O)c1ccccc1 [Cupferron] | > 90

same assay, conditions: rat, gh3-tre-luc cells, AC50 (uM) modified / 1000, Tox21_110001=Tox21_201641; viability, 1 nM T3 present, 24 h

Row | Structure (SMILES) | CC50 at 24 h [µM]
66 | COP(=O)(OC)OC(Br)C(Cl)(Cl)Br (centres unmarked) [Naled] | 48.7

same assay, conditions: rat, gh3-tre-luc cells, AC50 (uM) modified / 1000, Tox21_110001=Tox21_202098; viability, 1 nM T3 present, 24 h

Row | Structure (SMILES) | CC50 at 24 h [µM]
67 | COc1nc(NC(C)C)nc(NC(C)C)n1 [Prometon] | > 90

same assay, conditions: rat, gh3-tre-luc cells, AC50 (uM) modified / 1000, Tox21_110001=Tox21_202262; viability, 1 nM T3 present, 24 h

Row | Structure (SMILES) | CC50 at 24 h [µM]
68 | OCC(O)CCl (centres unmarked) [3-Chloro-1,2-propanediol] | > 90

same assay, conditions: rat, gh3-tre-luc cells, AC50 (uM) modified / 1000, Tox21_110001=Tox21_300698; viability, 1 nM T3 present, 24 h

Row | Structure (SMILES) | CC50 at 24 h [µM]
69 | CCOC(=O)COc1cc(-c2nn(C)c(OC(F)F)c2Cl)c(F)cc1Cl [Pyraflufen-ethyl] | > 90

same assay, conditions: rat, gh3-tre-luc cells, AC50 (uM) modified / 1000, Tox21_110001=Tox21_300845; viability, 1 nM T3 present, 24 h

Row | Structure (SMILES) | CC50 at 24 h [µM]
70 | COP(=O)(OC)OC(Br)C(Cl)(Cl)Br (centres unmarked) [Naled] | 49.1

same assay, conditions: rat, gh3-tre-luc cells, AC50 (uM) modified / 1000, Tox21_110001=Tox21_301360; viability, 1 nM T3 present, 24 h

Row | Structure (SMILES) | CC50 at 24 h [µM]
71 | CON(C)C(=O)Nc1ccc(Cl)cc1 [Monolinuron] | > 90
